Test results reported in patent US10780090B2, “Heteroaryl compounds useful as inhibitors of SUMO activating enzyme” (Millennium Pharmaceuticals, Inc., priority 2014, dated 2020).

Biological target: recombinant human SAE enzyme (Homo sapiens (Human), UniProt Q9UBT2)
Test: SAE HTRF enzyme assay
Format: biochemical
Conditions: for Percent Inhibition: SAE inhibition at compound concentration 0.111 μM; for IC50: SAE inhibition, class symbols, legend in nM
Outline: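 First, recombinant human SAE (0.11 nM) transfers Sumo-Flag onto Ubc9-GST using 0.5 μM ATP for 105 min at 24° C. Next, EDTA-containing detection buffer with labelled anti-Flag and anti-GST antibodies is added for 2 h. Finally, FRET is quantified and percent inhibition or IC50 derived.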

Chain of recombinant human SAE enzyme (Q9UBT2 whole entry): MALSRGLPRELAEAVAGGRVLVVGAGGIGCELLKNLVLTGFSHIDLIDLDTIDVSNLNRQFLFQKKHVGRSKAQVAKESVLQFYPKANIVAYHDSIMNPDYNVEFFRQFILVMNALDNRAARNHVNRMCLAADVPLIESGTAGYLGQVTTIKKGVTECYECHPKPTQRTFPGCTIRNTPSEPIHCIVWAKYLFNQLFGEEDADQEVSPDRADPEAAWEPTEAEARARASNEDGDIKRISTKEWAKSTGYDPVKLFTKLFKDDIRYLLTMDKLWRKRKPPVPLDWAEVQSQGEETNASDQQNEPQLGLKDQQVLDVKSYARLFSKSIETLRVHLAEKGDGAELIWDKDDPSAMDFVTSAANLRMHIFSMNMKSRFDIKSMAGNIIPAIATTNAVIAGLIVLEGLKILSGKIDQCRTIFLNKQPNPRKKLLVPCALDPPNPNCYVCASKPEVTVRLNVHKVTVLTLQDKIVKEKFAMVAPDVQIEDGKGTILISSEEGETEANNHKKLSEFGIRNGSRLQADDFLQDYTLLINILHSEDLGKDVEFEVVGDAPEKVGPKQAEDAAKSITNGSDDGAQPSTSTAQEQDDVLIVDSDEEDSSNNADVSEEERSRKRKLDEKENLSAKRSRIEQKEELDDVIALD
Chain of recombinant human SAE enzyme (Q9UBE0 whole entry partner): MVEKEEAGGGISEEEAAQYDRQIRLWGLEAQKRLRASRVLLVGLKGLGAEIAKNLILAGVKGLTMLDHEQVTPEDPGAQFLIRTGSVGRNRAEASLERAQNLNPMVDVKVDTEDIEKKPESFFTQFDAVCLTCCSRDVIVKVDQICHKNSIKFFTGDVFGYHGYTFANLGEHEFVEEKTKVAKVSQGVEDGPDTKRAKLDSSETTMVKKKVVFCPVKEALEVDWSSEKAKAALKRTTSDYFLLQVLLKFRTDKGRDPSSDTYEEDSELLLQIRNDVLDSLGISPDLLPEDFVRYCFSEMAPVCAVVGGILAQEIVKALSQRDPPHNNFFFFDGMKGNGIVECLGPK

| Compound | Percent Inhibition | IC50 |
| --- | --- | --- |
| Cc1sc(C(=O)c2cncnc2N[C@@H]2C[C@H](COS(N)(=O)=O)[C@@H](O)C2)cc1[C@@H]1OCCc2ccc(Cl)nc21 (single isomer, unassigned) [I-286a, [(1R,2S,4R)-4-{[5-({4-[(8S)-2-chloro-5,8-dihydro-6H-pyrano[3,4-b]pyridin-8-yl]-5-methyl-2-thienyl}carbonyl)pyrimidin-4-yl]amino}-2-hydroxycyclopentyl]methyl sulfamate or [(1R,2S,4R)-4-{[5-({4-[(8R)-2-chloro-5,8-dihydro-6H-pyrano[3,4-b]pyridin-8-yl]-5-methyl-2-thienyl}carbonyl)pyrimidin-4-yl]amino}-2-hydroxycyclopentyl]methyl sulfamate] | 39% | 100 to 1000 nM |
| Cc1sc(C(=O)c2cncnc2N[C@@H]2C[C@H](COS(N)(=O)=O)[C@@H](O)C2)cc1[C@@H]1OCCc2ccc(Cl)nc21 (single isomer, unassigned) [I-286b, [(1R,2S,4R)-4-{[5-({4-[(8S)-2-chloro-5,8-dihydro-6H-pyrano[3,4-b]pyridin-8-yl]-5-methyl-2-thienyl}carbonyl)pyrimidin-4-yl]amino}-2-hydroxycyclopentyl]methyl sulfamate or [(1R,2S,4R)-4-{[5-({4-[(8R)-2-chloro-5,8-dihydro-6H-pyrano[3,4-b]pyridin-8-yl]-5-methyl-2-thienyl}carbonyl)pyrimidin-4-yl]amino}-2-hydroxycyclopentyl]methyl sulfamate] | 99% | < 10 nM |
| Cc1nc2c(s1)CCO[C@H]2c1cc(C(=O)c2cncnc2N[C@@H]2C[C@H](COS(N)(=O)=O)[C@@H](O)C2)sc1C (single isomer, unassigned) [I-287a, [(1R,2S,4R)-2-hydroxy-4-{[5-({5-methyl-4-[(4S)-2-methyl-6,7-dihydro-4H-pyrano[3,4-d][1,3]thiazol-4-yl]-2-thienyl}carbonyl)pyrimidin-4-yl]amino}cyclopentyl]methyl sulfamate or [(1R,2S,4R)-2-hydroxy-4-{[5-({5-methyl-4-[(4R)-2-methyl-6,7-dihydro-4H-pyrano[3,4-d][1,3]thiazol-4-yl]-2-thienyl}carbonyl)pyrimidin-4-yl]amino}cyclopentyl]methyl sulfamate] | 9% | 100 to 1000 nM |
| Cc1nc2c(s1)CCO[C@H]2c1cc(C(=O)c2cncnc2N[C@@H]2C[C@H](COS(N)(=O)=O)[C@@H](O)C2)sc1C (single isomer, unassigned) [I-287b, [(1R,2S,4R)-2-hydroxy-4-{[5-({5-methyl-4-[(4S)-2-methyl-6,7-dihydro-4H-pyrano[3,4-d][1,3]thiazol-4-yl]-2-thienyl}carbonyl)pyrimidin-4-yl]amino}cyclopentyl]methyl sulfamate or [(1R,2S,4R)-2-hydroxy-4-{[5-({5-methyl-4-[(4R)-2-methyl-6,7-dihydro-4H-pyrano[3,4-d][1,3]thiazol-4-yl]-2-thienyl}carbonyl)pyrimidin-4-yl]amino}cyclopentyl]methyl sulfamate] | 98% | < 10 nM |
| NS(=O)(=O)OC[C@H]1C[C@@H](Nc2ncncc2C(=O)c2cc([C@@H]3OCC(F)(F)c4ccc(Cl)cc43)cs2)C[C@@H]1O (single isomer, unassigned) [I-289a, [(1R,2S,4R)-4-{[5-({4-[(1R)-7-chloro-4,4-difluoro-3,4-dihydro-1H-isochromen-1-yl]-2-thienyl}carbonyl)pyrimidin-4-yl]amino}-2-hydroxycyclopentyl]methyl sulfamate or [(1R,2S,4R)-4-{[5-({4-[(1S)-7-chloro-4,4-difluoro-3,4-dihydro-1H-isochromen-1-yl]-2-thienyl}carbonyl)pyrimidin-4-yl]amino}-2-hydroxycyclopentyl]methyl sulfamate] | 16% | 100 to 1000 nM |
| NS(=O)(=O)OC[C@H]1C[C@@H](Nc2ncncc2C(=O)c2cc([C@@H]3OCC(F)(F)c4ccc(Cl)cc43)cs2)C[C@@H]1O (single isomer, unassigned) [I-289b, [(1R,2S,4R)-4-{[5-({4-[(1R)-7-chloro-4,4-difluoro-3,4-dihydro-1H-isochromen-1-yl]-2-thienyl}carbonyl)pyrimidin-4-yl]amino}-2-hydroxycyclopentyl]methyl sulfamate or [(1R,2S,4R)-4-{[5-({4-[(1S)-7-chloro-4,4-difluoro-3,4-dihydro-1H-isochromen-1-yl]-2-thienyl}carbonyl)pyrimidin-4-yl]amino}-2-hydroxycyclopentyl]methyl sulfamate] | 99% | < 10 nM |
| NS(=O)(=O)OC[C@H]1C[C@@H](Nc2ncncc2C(=O)c2cc([C@@H]3OCCc4cc(F)c(F)cc43)c(Cl)s2)C[C@@H]1O (single isomer, unassigned) [I-290a, [(1R,2S,4R)-4-{[5-({5-chloro-4-[(1R)-6,7-difluoro-3,4-dihydro-1H-isochromen-1-yl]-2-thienyl}carbonyl)pyrimidin-4-yl]amino}-2-hydroxycyclopentyl]methyl sulfamate or [(1R,2S,4R)-4-{[5-({5-chloro-4-[(1S)-6,7-difluoro-3,4-dihydro-1H-isochromen-1-yl]-2-thienyl}carbonyl)pyrimidin-4-yl]amino}-2-hydroxycyclopentyl]methyl sulfamate] | 62% | 10 to 100 nM |
| NS(=O)(=O)OC[C@H]1C[C@@H](Nc2ncncc2C(=O)c2cc([C@@H]3OCCc4cc(F)c(F)cc43)c(Cl)s2)C[C@@H]1O (single isomer, unassigned) [I-290b, [(1R,2S,4R)-4-{[5-({5-chloro-4-[(1R)-6,7-difluoro-3,4-dihydro-1H-isochromen-1-yl]-2-thienyl}carbonyl)pyrimidin-4-yl]amino}-2-hydroxycyclopentyl]methyl sulfamate or [(1R,2S,4R)-4-{[5-({5-chloro-4-[(1S)-6,7-difluoro-3,4-dihydro-1H-isochromen-1-yl]-2-thienyl}carbonyl)pyrimidin-4-yl]amino}-2-hydroxycyclopentyl]methyl sulfamate] | 97% | < 10 nM |
| Cc1ccc2c(n1)C(c1cc(C(=O)c3cncnc3N[C@@H]3C[C@H](COS(N)(=O)=O)[C@@H](O)C3)sc1C)OCC2 (single isomer, unassigned) [I-291a, [(1R,2S,4R)-2-hydroxy-4-{[5-({5-methyl-4-[(8S)-2-methyl-5,8-dihydro-6H-pyrano[3,4-b]pyridin-8-yl]-2-thienyl}carbonyl)pyrimidin-4-yl]amino}cyclopentyl]methyl sulfamate or [(1R,2S,4R)-2-hydroxy-4-{[5-({5-methyl-4-[(8R)-2-methyl-5,8-dihydro-6H-pyrano[3,4-b]pyridin-8-yl]-2-thienyl}carbonyl)pyrimidin-4-yl]amino}cyclopentyl]methyl sulfamate] | 17% | 100 to 1000 nM |
